For experiment [1], the target named is T1, ABL1-nonphosphorylated (Homo sapiens, UniProt P00519).
T1 construct: purchased DiscoverX
The experiment is described as follows: scanMAX Kinase analysis panel (DiscoverX). In kind it is binding. As to conditions: 1 μM in DMSO. An excerpt:
(§1) [(Example Compound−Positive Control)/(Negative Control−Positive Control)×100]

Experiment [2] addresses T2, ALK (Homo sapiens, UniProt Q9UM73).
T2 construct: purchased DiscoverX
The experiment can be described thus: scanMAX Kinase analysis panel (DiscoverX). The experiment is classed as binding. The conditions noted are these: 1 μM in DMSO.
From the text: as §1

The target of experiment [3] is T3, ALK (L1196M) (Homo sapiens, UniProt Q9UM73, L1196M).
T3 construct: purchased DiscoverX
The experiment is described as follows: scanMAX Kinase analysis panel (DiscoverX). The experiment is classed as binding. The conditions noted are these: 1 μM in DMSO.
From the text: as §1

In experiment [4] the target is T4, JNK1 (Homo sapiens, UniProt P45983).
T4 construct: purchased DiscoverX
The experiment is described as follows: scanMAX Kinase analysis panel (DiscoverX). The experiment is classed as binding. As to conditions: 1 μM in DMSO.
From the text: as §1

For experiment [5], the target named is T5, LRRK2 (G2019S) (Homo sapiens, UniProt Q5S007, G2019S).
T5 construct: purchased DiscoverX
The experiment is described as follows: scanMAX Kinase analysis panel (DiscoverX). In kind it is binding. As to conditions: 1 μM in DMSO.
From the text: as §1

Experiment [6] deals with T6, MAPKAPK2 (Homo sapiens, UniProt P49137).
T6 construct: purchased DiscoverX scanMAX Kinase analysis panel
The experiment is described as follows: scanMAX Kinase analysis panel (DiscoverX). The experiment is classed as binding. The conditions noted are these: 1 μM in DMSO.
From the text: as §1

For experiment [7], the target named is T7, PAK2 (Homo sapiens, UniProt Q13177).
T7 construct: purchased DiscoverX
The experiment is described as follows: scanMAX Kinase analysis panel (DiscoverX). The experiment is classed as binding. The conditions noted are these: 1 μM in DMSO.
From the text: as §1

Experiment [8] concerns the target T8, PHKG1 (Homo sapiens, UniProt Q16816).
T8 construct: purchased DiscoverX
The experiment can be described thus: scanMAX Kinase analysis panel (DiscoverX). The experiment is classed as binding. As to conditions: 1 μM in DMSO.
From the text: as §1

For experiment [9], the target named is T9, STK39 (Homo sapiens, UniProt Q9UEW8).
T9 construct: purchased DiscoverX scanMAX Kinase analysis panel
The experiment can be described thus: scanMAX Kinase analysis panel (DiscoverX). In kind it is binding. As to conditions: 1 μM in DMSO.
From the text: as §1

For experiment [10], the system named is PC-9 cell line. The experiment is described as follows: Lung cancer cell colony formation inhibition. As to conditions: concomitant treatment with Gefitinib or Osimertinib, vs single treatment or Harmine, from 10 days, FIG. 1. In kind it is cell-based, human. An excerpt: Specifically, the PC-9 cell line was purchased from the ECACC (European Collection of Authenticated Cell Cultures), and RPMI-1640 with 10% FBS and 1% penicillin streptomycin was used. PC-9GR cells cultured with slow and sustained exposure to Gefitinib (manufactured by Selleckchem) were serially cultured with 1 μmol/L Gefitinib.
The remaining colony-forming cells were fixed with methanol (1%) and formaldehyde (1%), then dyed with 0.5% crystal violet before photographing each well.

For experiment [11], the system named is PC-9 lung cancer cells. The experiment is described as follows: Anticancer effect in mouse model with PC-9 lung cancer cells. In kind it is in vivo, Balb/c Nude Mice. The conditions noted are these: PC-9 model. The method, then: (§2) The PC-9 cell line was purchased from NanJing Cobioer Biological Technology Co., Ltd. Cells were kept in RPMI-1640 containing 10% FBS, and cultured in a 37° C. humidified cell culture incubator at 5% C2. All animal experiments were carried out according to the Animal Use and Management Guidelines of Shanghai Medicilon Inc. Under sterile conditions, 2×10^6 PC-9 tumor cells (0.1 mL, cell:Matrigel®=1:1) was administered to the right waist of each animal by S.C. administration. Tumor size and animal body weight were measured twice weekly, and clinical symptoms were recorded daily. The mice will be administered individually according to most recent body weight. The tumors were measured using calipers using two measurements, length (a) and width (b). The volume of the tumors was calculated individually as follows, from the two measured diameters of the tumors: tumor volume (mm^3)=(a×b^2)/2.

Experiment [12] has as its system NCI-H1975 lung cancer cells. The experiment can be described thus: Anticancer effect in mouse model with NCI-H1975 lung cancer cells. The experiment is classed as in vivo, Balb/c Nude Mice. As to the method: as §2, with “NCI-H1975” for “PC-9”, “the Institute of Biochemistry and Cell Biology (Shanghai Institutes for” for “NanJing Cobioer”, “Sciences, CAS).” for “Technology Co., Ltd.”, “CO2.” for “C2.”, “Under sterile conditions, 2×10^6 PC-9 tumor cells (0.1 mL, cell:Matrigel®=1:1) was administered to the right waist of each animal by S.C. administration.” left out

Experiment [13] relates to EMT6 breast cancer. The experiment is described as follows: Anticancer effect in EMT6 breast cancer transplant mouse model. The conditions noted are these: singular treatment, 45, 60, 75 mg/kg po BID, FIG. 6a. In kind it is in vivo, female C57BL/6 mouse. As to the method:
The 3LL cells were cultured in Hams F10:L15=3:7 culture medium, the EMT-6 cells were cultured in Waymouth's MB 752/1 culture medium, and the MC38 cells were cultured in a DMEM culture medium with 10% FBS and 1% penicillin streptomycin, at 37° C. in a 5% CO2 humidified cell culture incubator.
All animal tests were carried out through WuXi AppTec.

Experiment [14] has as its system Ba/F3 EGFR L858R/T790M/C797S. The experiment can be described thus: EGFR expression after treatment, western blot. The experiment is classed as cell-based. The conditions noted are these: 0.5, 1.2 and 5 μM, 4 or 24 hours, FIG. 7. As to the method: (§3) For the Ba/F3 EGFR L858R/T790M/C797S cell line, Ba/F3 naive cells purchased from DSMZ were transfected with EGFR L858R/T790M/C797S […] DNA using lipofectamine, and a cell line selected using 1 μg/ml puromycin for 2 weeks was used. Here, the culture medium used was RPMI-1640 with 10% FBS and 1% penicillin streptomycin. The NCI-H2228 and CAL-27 cell lines were purchased from ATCC, and for culturing RPMI-1640 with 10% FBS and 1% penicillin streptomycin was used for NCI-H2228, while for CAL-27 DMEM with 10% FBS and 1% penicillin streptomycin was used.
(§4) As needed, culturing was performed for 1 hour with Cyclohexamine at 30 μg/mL concentration, followed by 15 minutes EGF treatment at a concentration of 100 ng/mL. For the phosphoarray experiment, DYRK1a siRNA was reacted with HEK293T cells for 48 hours at 30 nM concentration, confirming inhibition of DYRK1a expression in the cells. These were used as the control for the main experiment.

In experiment [15] the test system is NCI-H2228. The experiment can be described thus: EGFR expression and signalling after treatment, western blot. The conditions noted are these: FIG. 7. The experiment is classed as cell-based. The method, then:
as §3, §4
(Immunoblotting shows a protein as a band on a membrane.)

The test system of experiment [16] is CAL-27. The experiment can be described thus: EGFR expression after treatment, western blot or phosphoarray. The conditions noted are these: FIG. 7. In kind it is cell-based. As to the method: as §3, §4
Experiment [17] has as its system Ba/F3 EGFR L858R/T790M/C797S cells. The experiment can be described thus: Cell growth inhibition, celltiterglo. The experiment is classed as cell-based. As to conditions: 72 hours, concomitant use with Osimertinib, compared with same amount of Harmine, FIG. 8. As to the method: The cells were treated for 72 hours using a serially diluted compound. The cell activity inhibition results for the compounds were measured using celltiterglo.
(Cellular ATP, detected with luciferase, serves as a proxy for viable cell number.)

Usually inhibition stands for the relative decrease from the control value, in per cent. Lower therefore signals a weak effect.

T5 sequence (Q5S007 whole entry G2019S): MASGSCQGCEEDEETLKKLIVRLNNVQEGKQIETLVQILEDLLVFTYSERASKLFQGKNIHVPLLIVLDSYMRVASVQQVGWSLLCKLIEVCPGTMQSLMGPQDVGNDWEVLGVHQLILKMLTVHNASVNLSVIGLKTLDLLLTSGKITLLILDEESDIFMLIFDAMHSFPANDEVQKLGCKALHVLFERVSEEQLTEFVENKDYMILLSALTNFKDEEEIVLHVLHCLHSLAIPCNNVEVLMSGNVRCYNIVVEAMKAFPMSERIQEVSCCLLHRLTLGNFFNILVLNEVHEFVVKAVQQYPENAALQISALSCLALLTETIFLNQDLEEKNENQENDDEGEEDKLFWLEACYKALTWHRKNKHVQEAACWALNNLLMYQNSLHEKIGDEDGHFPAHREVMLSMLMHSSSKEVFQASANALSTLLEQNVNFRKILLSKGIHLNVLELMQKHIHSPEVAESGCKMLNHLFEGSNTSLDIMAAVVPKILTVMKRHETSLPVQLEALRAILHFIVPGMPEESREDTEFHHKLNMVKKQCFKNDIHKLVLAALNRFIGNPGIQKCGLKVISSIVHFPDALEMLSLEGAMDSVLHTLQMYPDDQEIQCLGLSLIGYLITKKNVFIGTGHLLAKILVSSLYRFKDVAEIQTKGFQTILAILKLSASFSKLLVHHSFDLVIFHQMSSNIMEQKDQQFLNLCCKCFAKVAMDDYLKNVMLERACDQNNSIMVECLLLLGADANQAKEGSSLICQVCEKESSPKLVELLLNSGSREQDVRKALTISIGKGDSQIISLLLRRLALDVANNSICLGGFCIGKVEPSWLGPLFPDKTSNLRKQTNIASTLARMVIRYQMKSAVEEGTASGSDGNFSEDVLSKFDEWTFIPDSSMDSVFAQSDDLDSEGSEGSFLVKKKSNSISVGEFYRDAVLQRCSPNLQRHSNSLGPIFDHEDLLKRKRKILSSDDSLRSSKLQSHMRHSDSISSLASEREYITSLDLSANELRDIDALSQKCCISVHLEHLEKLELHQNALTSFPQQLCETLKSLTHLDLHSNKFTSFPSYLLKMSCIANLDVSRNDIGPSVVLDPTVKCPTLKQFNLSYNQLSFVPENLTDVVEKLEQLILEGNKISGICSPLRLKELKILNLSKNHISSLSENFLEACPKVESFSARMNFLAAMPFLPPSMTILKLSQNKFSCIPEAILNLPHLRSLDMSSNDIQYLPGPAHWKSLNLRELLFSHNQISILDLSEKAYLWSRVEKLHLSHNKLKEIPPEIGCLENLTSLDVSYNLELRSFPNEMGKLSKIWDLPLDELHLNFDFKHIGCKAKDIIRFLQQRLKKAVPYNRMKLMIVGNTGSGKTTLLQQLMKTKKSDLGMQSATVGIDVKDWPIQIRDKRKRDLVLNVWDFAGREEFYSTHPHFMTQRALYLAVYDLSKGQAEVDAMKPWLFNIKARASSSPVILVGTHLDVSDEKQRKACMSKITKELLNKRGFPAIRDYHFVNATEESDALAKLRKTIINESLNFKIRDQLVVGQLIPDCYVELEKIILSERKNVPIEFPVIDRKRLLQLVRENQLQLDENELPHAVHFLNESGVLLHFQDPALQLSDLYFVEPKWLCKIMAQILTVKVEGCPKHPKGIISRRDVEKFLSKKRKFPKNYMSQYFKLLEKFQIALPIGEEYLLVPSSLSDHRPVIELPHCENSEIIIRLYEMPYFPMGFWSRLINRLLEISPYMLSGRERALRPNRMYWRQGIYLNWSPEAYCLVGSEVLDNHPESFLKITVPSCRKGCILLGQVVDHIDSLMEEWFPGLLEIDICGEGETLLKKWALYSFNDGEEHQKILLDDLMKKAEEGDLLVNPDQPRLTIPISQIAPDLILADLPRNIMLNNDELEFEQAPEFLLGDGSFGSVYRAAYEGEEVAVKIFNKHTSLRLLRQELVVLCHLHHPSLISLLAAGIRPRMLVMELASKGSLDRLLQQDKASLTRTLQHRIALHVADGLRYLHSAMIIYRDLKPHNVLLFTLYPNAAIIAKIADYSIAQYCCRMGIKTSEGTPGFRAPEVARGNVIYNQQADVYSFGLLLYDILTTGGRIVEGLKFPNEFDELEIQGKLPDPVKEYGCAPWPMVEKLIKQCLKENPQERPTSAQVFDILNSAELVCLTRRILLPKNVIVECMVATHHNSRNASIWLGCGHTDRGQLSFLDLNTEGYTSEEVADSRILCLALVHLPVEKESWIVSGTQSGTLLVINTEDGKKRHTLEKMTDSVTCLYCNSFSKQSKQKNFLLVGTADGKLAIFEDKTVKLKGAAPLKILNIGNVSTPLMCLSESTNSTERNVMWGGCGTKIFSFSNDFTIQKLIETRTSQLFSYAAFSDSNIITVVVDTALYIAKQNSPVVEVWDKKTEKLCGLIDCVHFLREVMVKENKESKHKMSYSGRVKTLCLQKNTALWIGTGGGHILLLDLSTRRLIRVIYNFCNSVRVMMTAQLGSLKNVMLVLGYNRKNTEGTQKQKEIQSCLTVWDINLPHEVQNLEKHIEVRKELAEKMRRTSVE
T2 sequence (Q9UM73 19-1620): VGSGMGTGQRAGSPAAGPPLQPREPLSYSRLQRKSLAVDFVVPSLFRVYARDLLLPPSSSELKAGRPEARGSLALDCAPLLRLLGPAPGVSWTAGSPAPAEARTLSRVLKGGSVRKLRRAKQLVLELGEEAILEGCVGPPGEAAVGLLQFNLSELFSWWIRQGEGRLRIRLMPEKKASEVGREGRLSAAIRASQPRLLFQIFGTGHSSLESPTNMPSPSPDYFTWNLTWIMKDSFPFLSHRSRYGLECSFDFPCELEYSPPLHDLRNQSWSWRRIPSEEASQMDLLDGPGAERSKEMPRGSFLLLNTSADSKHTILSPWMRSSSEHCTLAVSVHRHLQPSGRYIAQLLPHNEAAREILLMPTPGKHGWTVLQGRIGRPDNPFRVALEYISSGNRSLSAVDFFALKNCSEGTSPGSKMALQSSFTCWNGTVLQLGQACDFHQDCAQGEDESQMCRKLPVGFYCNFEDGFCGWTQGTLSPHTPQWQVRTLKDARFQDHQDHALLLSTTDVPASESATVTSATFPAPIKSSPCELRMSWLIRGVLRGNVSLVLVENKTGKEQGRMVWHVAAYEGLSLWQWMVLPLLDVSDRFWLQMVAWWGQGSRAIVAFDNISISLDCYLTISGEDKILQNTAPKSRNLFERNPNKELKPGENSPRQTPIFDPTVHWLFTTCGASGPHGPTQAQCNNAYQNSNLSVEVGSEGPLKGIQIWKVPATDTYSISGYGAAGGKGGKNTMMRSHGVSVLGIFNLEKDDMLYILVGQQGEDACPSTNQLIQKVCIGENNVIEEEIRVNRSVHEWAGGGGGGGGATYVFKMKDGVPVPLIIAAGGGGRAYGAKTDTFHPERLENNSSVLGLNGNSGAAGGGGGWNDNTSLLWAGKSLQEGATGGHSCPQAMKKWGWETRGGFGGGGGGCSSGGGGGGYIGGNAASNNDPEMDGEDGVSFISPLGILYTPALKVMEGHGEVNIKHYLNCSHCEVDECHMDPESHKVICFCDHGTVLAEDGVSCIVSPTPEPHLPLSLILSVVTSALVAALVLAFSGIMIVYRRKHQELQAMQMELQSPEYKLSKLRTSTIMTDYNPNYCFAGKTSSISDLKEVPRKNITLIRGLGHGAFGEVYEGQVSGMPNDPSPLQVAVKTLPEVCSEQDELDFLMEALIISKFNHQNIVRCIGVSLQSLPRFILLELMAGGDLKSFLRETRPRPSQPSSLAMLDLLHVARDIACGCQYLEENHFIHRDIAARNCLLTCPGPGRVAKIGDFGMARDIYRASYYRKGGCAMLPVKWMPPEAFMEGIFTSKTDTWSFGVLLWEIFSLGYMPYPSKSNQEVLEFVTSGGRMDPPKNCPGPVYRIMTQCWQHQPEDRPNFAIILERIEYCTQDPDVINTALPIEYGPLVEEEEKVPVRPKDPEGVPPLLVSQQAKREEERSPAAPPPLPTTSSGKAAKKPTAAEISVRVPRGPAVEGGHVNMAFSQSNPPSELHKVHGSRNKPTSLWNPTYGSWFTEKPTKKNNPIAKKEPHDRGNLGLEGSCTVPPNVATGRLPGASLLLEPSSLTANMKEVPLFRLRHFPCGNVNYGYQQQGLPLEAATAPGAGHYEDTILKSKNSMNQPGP
T6 sequence (P49137 whole entry): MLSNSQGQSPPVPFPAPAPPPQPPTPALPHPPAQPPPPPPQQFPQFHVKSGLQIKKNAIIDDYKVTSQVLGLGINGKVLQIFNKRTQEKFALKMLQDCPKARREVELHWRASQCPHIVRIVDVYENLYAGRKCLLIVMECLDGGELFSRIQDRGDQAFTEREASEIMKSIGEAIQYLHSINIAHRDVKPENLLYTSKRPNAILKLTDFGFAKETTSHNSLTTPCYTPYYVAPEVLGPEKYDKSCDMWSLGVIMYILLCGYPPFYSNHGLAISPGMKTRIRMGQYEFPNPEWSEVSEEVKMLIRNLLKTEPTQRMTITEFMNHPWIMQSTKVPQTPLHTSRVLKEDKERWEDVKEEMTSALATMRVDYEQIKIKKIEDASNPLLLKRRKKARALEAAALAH
T3 sequence (Q9UM73 19-1620 L1196M): as the sequence (Q9UM73 19-1620) above, with L1178M counted along it
T4 sequence (P45983 whole entry): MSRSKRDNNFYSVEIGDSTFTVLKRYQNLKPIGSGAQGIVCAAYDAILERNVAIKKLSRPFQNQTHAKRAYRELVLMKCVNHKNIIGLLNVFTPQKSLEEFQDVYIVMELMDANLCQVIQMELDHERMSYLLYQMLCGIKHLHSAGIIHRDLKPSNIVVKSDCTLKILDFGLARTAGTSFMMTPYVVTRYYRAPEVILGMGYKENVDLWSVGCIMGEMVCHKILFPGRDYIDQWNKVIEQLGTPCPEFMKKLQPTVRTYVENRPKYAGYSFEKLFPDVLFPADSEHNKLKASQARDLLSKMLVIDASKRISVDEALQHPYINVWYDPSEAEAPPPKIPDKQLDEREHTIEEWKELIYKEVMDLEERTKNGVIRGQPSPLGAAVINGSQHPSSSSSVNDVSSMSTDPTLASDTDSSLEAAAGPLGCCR

As for `CCNc1cc(Nc2ccc(C(=O)N3CCC(N4CCOCC4)CC3)cc2OC)nc2[nH]cc(C(F)(F)F)c12` [Compound 1, (4-((4-(ethylamino)-3-(trifluoromethyl)-1H-pyrrolo[2,3-b]pyridine-6-yl)amino)-3-methoxyphenyl) (4-morpholinopiperidine-1-yl)methanone], the inhibition at 1 µM was 40 to 59% in experiment [1]; at least 59% in [2]; at least 59% in experiment [3]; at least 59% in experiment [4]; at least 59% in experiment [5]; 40 to 59% in experiment [6]. For the same compound, the inhibition at 1 µM in experiment [7] was at least 59%; in experiment [8], at least 59%; in experiment [9], 40 to 59%. In [10], the colony formation inhibition result was “substantially inhibit formation of lung cancer cell colonies”. The anticancer effect result was “substantially reduced lung cancer (PC-9) cells” in [11] (Compound 1 20 or 40 mg/kg concomitant with Gefitinib 10 mg/kg, PO QD, vs Gefitinib alone, FIG. 4); “substantially reduced lung cancer (PC-9) cells” in [11] (Compound 1 20 or 40 mg/kg concomitant with Osimertinib 3 mg/kg, PO QD, vs Osimertinib alone, FIG. 3); “no anticancer effect” in experiment [11] (singular treatment with Compound 1, 40 mg/kg PO QD); “substantially reduced lung cancer (NCI-H1975) cells” in [12] (Compound 1 40 or 60 mg/kg concomitant with Osimertinib 3.5 mg/kg, PO QD, vs Osimertinib alone, FIG. 5); “no anticancer effect” in experiment [12] (singular treatment with Compound 1, 60 mg/kg PO QD). Moreover, in experiment [13], the tumor suppression effect result is “insignificant tumor suppression effect”. The EGFR expression entry in experiment [14] was “reduced EGFR expression”; in [15] (0.5, 1.2 and 5 μM, 4 or 24 hours) it was “reduced EGFR expression”; in experiment [16], “reduced EGFR expression”. The “p-AKT (S473)” value in experiment [15] was “reduction”. The “p-Erk 1/2 (T202/Y204)” value in [15] is “reduction”. For the same compound, the “p-EGFR (Y-1086) expression” value in [16] (phosphoarray, 2 μM, 48 hours) is listed as “Reduction in expression”. Further, the “cell growth inhibition effect” value in experiment [17] is given as “improved cell growth inhibition effect compared to treatment with the same amount of Harmine”.

The values are drawn from patent publication US20220218715A1, “NOVEL USE OF PYRROLO-PYRIDINE DERIVATIVE COMPOUND FOR PREVENTION AND/OR TREATMENT OF CANCER” (VORONOI CO., LTD., priority 2019, published 2022).
